In patent US20250338846A1, “COMPOSITIONS HAVING PESTICIDAL UTILITY AND PROCESSES RELATED THERETO” (CORTEVA AGRISCIENCE, LLC, priority 2022, published 2025):
Where “and” joins values, the source holds several entries; their conditions need not be identical. Identical values can stand only once. Like-named read-outs stand apart in the source and are kept apart here.

Columns and labels:
[1] = tested on: Green Peach Aphid (Myzus persicae, MYZUPE); assay: Bioassay 1: Green Peach Aphid, foliar spray on infested cabbage seedlings, live aphids counted three days after treatment; type: in vivo
Description: Bioassay 1: Green Peach Aphid (Myzus persicae, MYZUPE) (“GPA”).
The stock solutions were prepared with Formula One as well as for each of the active ingredients individually. Test solutions were prepared from the stock solutions. Test solutions were prepared containing Formula One, the individual active ingredients, and mixtures of Formula One with each of the active ingredients. The test solutions for Formula One and the individual active ingredients were prepared by adding 750 microliters (μL) of stock solution to a 25 mL glass vial, then adding 750 μL of 1:1 acetone: methanol solvent, followed by the addition of 13.5 ml water with 0.025% Tween®) 20 to create a 0.0005% (weight/volume (w/v)) solution. The test solutions containing mixtures of Formula One and the individual active ingredients were prepared by adding 750 μL of the active ingredient stock solution to a 25 mL glass vial, followed by 750 μL of the Formula One stock solution, then by the addition of 13.5 mL water with 0.025% Tween®) 20 to create a test solution containing 0.0005% (w/v) Formula One and 0.0005% (w/v) of the active ingredient. Each test solution was serially diluted to create desired doses of test solutions (0.0005% (w/v), 0.000125% (w/v), 0.00003125% (w/v), 0.0000078% (w/v), 0.00000195% (w/v), and 0.0000005% (w/v)).
The test solutions were tested against GPA using the following procedure: Cabbage seedlings, grown in 3-inch pots with 2-3 small (3-5 centimeter (cm)) true leaves, were used as test substrate. The seedlings were infested with 20-50 GPA (wingless adult and nymph stages) one day prior to chemical application. Four pots with individual seedlings were used for each treatment. A hand-held aspirator-type sprayer was used for spraying a solution to both sides of […] leaves until runoff. Reference plants (solvent check) were sprayed with the diluent only (0.025% Tween®) 20 and 10% acetone:methanol (1:1) in water). Treated plants were held in a holding room for three days at approximately 25° C. and ambient relative humidity (RH about 20% to about 45%) prior to grading. Evaluation was conducted by counting the number of live aphids per plant under a microscope three days after treatment. Percent control was measured using Abbott's correction formula (W. S. Abbott, J. Econ. Entomol. 18 (1925), pp. 265-267) as follows:
where X=No. of live aphids on solvent check plants and Y=No. of live aphids on treated plants. In Table B1 the “Expected % Control” was calculated using the method described in Colby S. R., Weeds, 1967, 15, 20-22. Bioassay 2: Sweet Potato Whitefly (Bemisia tabaci, BEMITA) (“SPW”).

[2] = tested on: Western Flower Thrips (Frankliniella occidentalis, FRANOC); assay: Bioassay 3: Western Flower Thrips, cotton leaf disc dip, live WFT counted 3 days after treatment; type: in vivo; settings: for pest or weed control at 7.8e-05 % strength: read-out: Average % Control AI
How it was run: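 Cotton leaf discs were dipped in acetone/water solutions with 0.025% Tween 20, at 0.005% to 0.0000195% (w/v) for single actives; mixtures held Formula One constant at 0.04% (w/v). Discs were air dried, infested with 5 nymphs aged 9-10 days, and held at approximately 26° C. Live thrips were counted at 3 days, with Abbott-corrected control against solvent checks.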

[3] = Frankliniella occidentalis, foliar, 72 h, AI alone 0.0003125 % w/v

Q: `Cc1c(COC(=O)[C@@H]2[C@H](/C=C(\Cl)C(F)(F)F)C2(C)C)cccc1-c1ccccc1` (racemic) [Bifenthrin] was tested. Which “Average % Control AI” value ([1]; AI alone 0.78 (10^-5) % w/v) did it give?
A: Its value is 52%.

Q: How did the pest or weed control at 0.0003125 % strength [2, 3] turn out when `CC1(C)[C@H](C(=O)O[C@H](C#N)c2cccc(Oc3ccccc3)c2)[C@@H]1/C=C(\Cl)C(F)(F)F` (racemic) [Lambda Cyhalothrin] was run?
A: Its pest or weed control at 0.0003125 % strength is 7%.

Q: And the “Average % Control AI” value ([1]; AI alone 0.78 (10^-5) % w/v)?
A: The value was 40%.

Q: Which pest or weed control at 7.8e-05 % strength ([2]; Frankliniella occidentalis, foliar, 72 h) does the source give for `COP(=O)(NC(C)=O)SC` (stereo not shown) [Acephate] here?
A: The pest or weed control at 7.8e-05 % strength was 5%.

Q: Which results are given for `C/C(=N\C#N)N(C)Cc1ccc(Cl)nc1` [Acetamiprid]?
A: pest or weed control at 0.0003125 % strength [2, 3]: 13%; Average % Control AI ([1]; AI alone 0.78 (10^-5) % w/v): 24%

Q: For `CC[S+]([O-])c1c(C#N)nn(-c2c(Cl)cc(C(F)(F)F)cc2Cl)c1N` (stereo not shown) [Ethiprole], which pest or weed control at 0.005 % strength ([2]; Frankliniella occidentalis, foliar, 72 h, AI alone 0.005 % w/v) is on record?
A: Its pest or weed control at 0.005 % strength is 0%.

Q: What about the “Average % Control AI” value ([1]; AI alone 3.125 (10^-5) % w/v) of the same compound?
A: The value was 0%.

Q: Which “Average % Control AI” value ([2]; AI alone 0.0003125 % w/v) does the source give for `CON=CNC(=O)c1ccc(C2=NOC(c3cc(Cl)cc(Cl)c3)(C(F)(F)F)C2)cc1C` (stereo not shown) [Fluxametamide] here?
A: Its value is 67%.

Q: And the “Average % Control AI” value ([1]; AI alone 12.5 (10^-5) % w/v)?
A: The value was 0%.

Q: `CCN(C(=O)CCS(C)(=O)=O)c1sc(-c2cccnc2)nc1Cl` [Formula F1, N-(4-chloro-2-(pyridin-3-yl)thiazol-5-yl)-N-ethyl-3-(methylsulfonyl)propanamide] was tested. Which “Average % Control F1” value ([1]; F1 alone 0.05 (10^-5) % w/v) did it give?
A: Its value is 29%.

Q: What about the “Average % Control F1” value ([1]; F1 alone 0.195 (10^-5) % w/v) of the same compound?
A: Its value is 13%.

Q: And the “Average % Control F1” value ([1]; F1 alone 0.78 (10^-5) % w/v)?
A: Its value is 28%.

Q: And the “Average % Control F1” value ([1]; F1 alone 3.125 (10^-5) % w/v)?
A: Its value is 30% and 35%.

Q: What about the “Average % Control F1” value ([1]; F1 alone 12.5 (10^-5) % w/v) of the same compound?
A: Its value is 39%.

Q: Which pest or weed control at 0.0003125 % strength [2, 3] does the source give for `O=[N+]([O-])NC1=NCCN1Cc1ccc(Cl)nc1` [Imidacloprid] here?
A: Its pest or weed control at 0.0003125 % strength is 0%.

Q: For `CN1COCN(Cc2cnc(Cl)s2)/C1=N\[N+](=O)[O-]` [Thiamethoxam], which pest or weed control at 7.8e-05 % strength ([2]; Frankliniella occidentalis, foliar, 72 h, AI alone 0.000078 % w/v) is on record?
A: The pest or weed control at 7.8e-05 % strength was 7%.

Q: How did the “Average % Control AI” value ([2]; AI alone 0.005 % w/v) turn out when Emamectin Benzoate was run?
A: Its value is 38%.

Q: What about the “Average % Control AI” value ([1]; AI alone 3.125 (10^-5) % w/v) of the same compound?
A: The value was 21%.
